Data published in the supplement of paper PMC10307832.

Experiments:
Assay in all cases: relative viability (nuclei count vs DMSO), 5 days (fraction); higher = more cells survive
NCI-H2009 = system: NCI-H2009
How it was run: (§1)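 For relative viability, nuclei counts in treated wells were divided by those in vehicle wells. Lung cancer cell lines had been pin-tool dosed in 1536-well plates the day after seeding and cultured for 5 days, then fixed and stained in one step (final 0.05% Triton X-100, 1% formaldehyde, 1 ug/ml Hoechst) and imaged at 4×. Doses were one drug alone or a fixed anchor-drug dose plus five library-drug doses (not always all listed) in √10 steps, and values are duplicate-plate medians.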

NCI-H322M = system: NCI-H322M
How it was run: as §1

PC-14 = system: PC-14
How it was run: as §1

SK-LU-1 = system: SK-LU-1
How it was run: as §1

NCI-H1563 = system: NCI-H1563
How it was run: as §1

NCI-H1734 = system: NCI-H1734
How it was run: as §1

NCI-H2085 = system: NCI-H2085
How it was run: as §1

HOP-62 = system: HOP-62
How it was run: as §1

NCI-H2126 = system: NCI-H2126
How it was run: as §1

NCI-H1993 = system: NCI-H1993
How it was run: as §1

NCI-H647 = system: NCI-H647
How it was run: as §1

For Nc1ccn([C@@H]2O[C@H](CO)[C@@H](O)[C@@H]2O)c(=O)n1 [Cytarabine] + Nc1nc2[nH]cc(CCc3ccc(C(=O)N[C@@H](CCC(=O)O)C(=O)O)cc3)c2c(=O)[nH]1 [Pemetrexed] (partner 0.2 µM), the relative viability (NCI-H2009; first compound 0.005 µM) was 0.971, the relative viability (NCI-H2009; first compound 0.01581 µM) was 0.99 and the relative viability (NCI-H2009; first compound 0.05 µM) was 0.996. The relative viability (NCI-H2009; first compound 0.1581 µM) was 0.827, the relative viability (NCI-H2009; first compound 0.5 µM) was 0.258 and the relative viability (NCI-H322M; first compound 0.005 µM) was 0.609. It also gave a relative viability (NCI-H322M; first compound 0.01581 µM) of 0.628, a relative viability (NCI-H322M; first compound 0.05 µM) of 0.572 and a relative viability (NCI-H322M; first compound 0.1581 µM) of 0.408. The relative viability (NCI-H322M; first compound 0.5 µM) was 0.384, the relative viability (PC-14; first compound 0.005 µM) was 0.183 and the relative viability (PC-14; first compound 0.01581 µM) was 0.156. It also gave a relative viability (PC-14; first compound 0.05 µM) of 0.187, a relative viability (PC-14; first compound 0.1581 µM) of 0.0581 and a relative viability (PC-14; first compound 0.5 µM) of 0.0565. The relative viability (SK-LU-1; first compound 0.005 µM) was 0.827, the relative viability (SK-LU-1; first compound 0.01581 µM) was 0.732 and the relative viability (SK-LU-1; first compound 0.05 µM) was 0.642. It also gave a relative viability (SK-LU-1; first compound 0.1581 µM) of 0.377, a relative viability (SK-LU-1; first compound 0.5 µM) of 0.331 and a relative viability (NCI-H1563; first compound 0.005 µM) of 0.823. The relative viability (NCI-H1563; first compound 0.01581 µM) was 0.727, the relative viability (NCI-H1563; first compound 0.05 µM) was 0.637 and the relative viability (NCI-H1563; first compound 0.1581 µM) was 0.505. It also gave a relative viability (NCI-H1563; first compound 0.5 µM) of 0.44, a relative viability (NCI-H1734; first compound 0.005 µM) of 0.501 and a relative viability (NCI-H1734; first compound 0.01581 µM) of 0.236. It also gave a relative viability (NCI-H1734; first compound 0.05 µM) of 0.193, a relative viability (NCI-H1734; first compound 0.1581 µM) of 0.117 and a relative viability (NCI-H1734; first compound 0.5 µM) of 0.103. For the same compound, the relative viability (NCI-H2085; first compound 0.005 µM) was 0.788, the relative viability (NCI-H2085; first compound 0.01581 µM) was 0.921 and the relative viability (NCI-H2085; first compound 0.05 µM) was 0.906. It also gave a relative viability (NCI-H2085; first compound 0.1581 µM) of 0.703, a relative viability (NCI-H2085; first compound 0.5 µM) of 0.547 and a relative viability (HOP-62; first compound 0.005 µM) of 0.388. It also gave a relative viability (HOP-62; first compound 0.01581 µM) of 0.411, a relative viability (HOP-62; first compound 0.05 µM) of 0.309 and a relative viability (HOP-62; first compound 0.1581 µM) of 0.113. For the same compound, the relative viability (HOP-62; first compound 0.5 µM) was 0.072, the relative viability (NCI-H2126; first compound 0.005 µM) was 0.76 and the relative viability (NCI-H2126; first compound 0.01581 µM) was 0.775. It also gave a relative viability (NCI-H2126; first compound 0.05 µM) of 0.525, a relative viability (NCI-H2126; first compound 0.1581 µM) of 0.549 and a relative viability (NCI-H2126; first compound 0.5 µM) of 0.46. The relative viability (NCI-H1993; first compound 0.005 µM) was 0.682, the relative viability (NCI-H1993; first compound 0.01581 µM) was 0.548 and the relative viability (NCI-H1993; first compound 0.05 µM) was 0.299. For the same compound, the relative viability (NCI-H1993; first compound 0.1581 µM) was 0.448, the relative viability (NCI-H1993; first compound 0.5 µM) was 0.471 and the relative viability (NCI-H647; first compound 0.005 µM) was 0.185. For the same compound, the relative viability (NCI-H647; first compound 0.01581 µM) was 0.174.
